# Experimental data from patent publication US9801961B2, “2-phenylimidazo[1,2-a]pyrimidines as imaging agents” (Hoffmann-La Roche Inc., priority 2013, dated 2017).
# System: native tau aggregates
# Test: TAU radioligand in vitro displacement assay ([3H]T808 autoradiography on human AD brain sections)
# Format: binding
# Settings: compound 10 nM, radioligand [3H]T808 10 nM, 50 mM Tris pH 7.4, room temperature, 30 min
# How it was run: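 Human AD brain cryosections (10 μm) co-incubated with [3H]T808 (10 nM) and test compound at various concentrations in 50 mM Tris pH 7.4, 30 min at room temperature, then washed at 4° C. Autoradiography after 5-day plate exposure. % displacement from ROI specific binding, white-matter signal subtracted as non-specific; cold T808 internal control.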
row,Structure (SMILES),% displacement of [3H]T808 (10 nM) at 10 nM
1,"COc1ccc(-c2cn3ccc(N4CC(OC)C4)nc3n2)cc1 [Example 81, 7-(3-Methoxyazetidin-1-yl)-2-(4-methoxyphenyl)imidazo[1,2-a]pyrimidine]",16%
2,"CNc1ccn2cc(-c3ccc(C)cc3)nc2n1 [Example 82, N-Methyl-2-(4-methylphenyl)imidazo[1,2-a]pyrimidin-7-amine]",38%
3,"CNc1ccn2cc(-c3ccc(OC)cc3)nc2n1 [Example 83, 2-(4-Methoxyphenyl)-N-methylimidazo[1,2-a]pyrimidin-7-amine]",41%
4,"CNc1ccn2cc(-c3ccc4c(c3)OCO4)nc2n1 [Example 84, 2-(1,3-Benzodioxol-5-yl)-N-methylimidazo[1,2-a]pyrimidin-7-amine]",28%
5,"CN(C)c1ccn2cc(-c3ccsc3)nc2n1 [Example 85, N,N-Dimethyl-2-thiophen-3-ylimidazo[1,2-a]pyrimidin-7-amine]",35%
6,"Cc1ccc(-c2cn3ccc(N(C)CCF)nc3n2)cc1 [Example 86, N-(2-Fluoroethyl)-N-methyl-2-(4-methylphenyl)imidazo[1,2-a]pyrimidin-7-amine]",16%
7,"CN(CCF)c1ccn2cc(-c3ccc4c(c3)OCO4)nc2n1 [Example 87, 2-(1,3-Benzodioxol-5-yl)-N-(2-fluoroethyl)-N-methylimidazo[1,2-a]pyrimidin-7-amine]",15%
8,"Cc1cccc(-c2cn3ccc(N(C)CCF)nc3n2)c1 [Example 88, N-(2-Fluoroethyl)-N-methyl-2-(3-methylphenyl)imidazo[1,2-a]pyrimidin-7-amine]",22%
9,"COc1ccc(-c2cn3ccc(N4CC(C)C4)nc3n2)cc1 [Example 89, 2-(4-Methoxyphenyl)-7-(3-methylazetidin-1-yl)imidazo[1,2-a]pyrimidine]",20%
10,"CNc1ccn2cc(-c3ccc(N(C)C)cc3)nc2n1 [Example 90, 2-[4-(Dimethylamino)phenyl]-N-methylimidazo[1,2-a]pyrimidin-7-amine]",38%
11,"CN(C)c1ccc(-c2cn3ccc(N4CCC(F)CC4)nc3n2)cc1 [Example 91, 4-[7-(4-Fluoropiperidin-1-yl)imidazo[1,2-a]pyrimidin-2-yl]-N,N-dimethylaniline]",15%
12,"CN(C)c1ccc(-c2cn3ccc(N(C)CCF)nc3n2)cc1 [Example 92, 2-[4-(Dimethylamino)phenyl]-N-(2-fluoroethyl)-N-methylimidazo[1,2-a]pyrimidin-7-amine]",27%
13,"COc1ccc(-c2cn3ccc(N(C)C4CC4)nc3n2)cc1 [Example 93, N-Cyclopropyl-2-(4-methoxyphenyl)-N-methylimidazo[1,2-a]pyrimidin-7-amine]",42%
14,"Cc1ccc(-c2cn3ccc(N4CCC4)nc3n2)cc1 [Example 94, 7-(Azetidin-1-yl)-2-(4-methylphenyl)imidazo[1,2-a]pyrimidine]",15%
15,"Cc1cccc(-c2cn3ccc(N4CCC4)nc3n2)c1 [Example 95, 7-(Azetidin-1-yl)-2-(3-methylphenyl)imidazo[1,2-a]pyrimidine]",38%
16,"CN(C)c1ccc(-c2cn3ccc(NCCF)nc3n2)cc1 [Example 96, 2-[4-(Dimethylamino)phenyl]-N-(2-fluoroethyl)imidazo[1,2-a]pyrimidin-7-amine]",34%
17,"FCOc1ccc(-c2cn3ccc(N4CCC4)nc3n2)cc1 [Example 97, 7-(Azetidin-1-yl)-2-[4-(fluoromethoxy)phenyl]imidazo[1,2-a]pyrimidine]",30%
18,"CNc1ccn2cc(-c3ccc(O)c(OC)c3)nc2n1 [Example 98, 2-Methoxy-4-[7-(methylamino)imidazo[1,2-a]pyrimidin-2-yl]phenol]",18%
19,"CNc1ccn2cc(-c3cccc(Br)c3)nc2n1 [Example 99, 2-(3-Bromophenyl)-N-methylimidazo[1,2-a]pyrimidin-7-amine]",27%
20,"FC1CCN(c2ccn3cc(-c4cnccn4)nc3n2)CC1 [Example 106, 7-(4-Fluoropiperidin-1-yl)-2-(pyrazin-2-yl)imidazo[1,2-a]pyrimidine]",20%
21,"CNc1ccn2cc(-c3ccc(CO)cc3)nc2n1 [Example 107, [4-[7-(Methylamino)imidazo[1,2-a]pyrimidin-2-yl]phenyl]methanol acetic acid adduct]",23%
22,"CNc1ccn2cc(-c3ccc(OC)c(F)c3)nc2n1 [Example 108, 2-(3-Fluoro-4-methoxyphenyl)-N-methylimidazo[1,2-a]pyrimidin-7-amine]",36%

row,Structure (SMILES),% displacement of [3H]T808 (10 nM) at 10 nM
1,"CNc1ccn2cc(-c3ccc(NC(C)=O)cc3)nc2n1 [Example 109, N-(4-(7-(Methylamino)imidazo[1,2-a]pyrimidin-2-yl)phenyl)acetamide]",30%
2,"CNc1ccn2cc(-c3ccc4c(c3)CC(=O)N4)nc2n1 [Example 110, 5-(7-(Methylamino)imidazo[1,2-a]pyrimidin-2-yl)indolin-2-one]",18%
3,"FCCOc1ccc(-c2cn3ccc(N4CCC4)nc3n2)cc1 [Example 111, 7-(Azetidin-1-yl)-2-(4-(2-fluoroethoxy)phenyl)imidazo[1,2-a]pyrimidine]",25%
4,"FCCCOc1ccc(-c2cn3ccc(N4CCC4)nc3n2)cc1 [Example 112, 7-(Azetidin-1-yl)-2-(4-(3-fluoropropoxy)phenyl)imidazo[1,2-a]pyrimidine]",15%
5,"COc1cccc(-c2cn3ccc(N4CCC4)nc3n2)c1 [Example 113, 7-(Azetidin-1-yl)-2-(3-methoxyphenyl)imidazo[1,2-a]pyrimidine]",36%
6,"CNc1ccn2cc(-c3cccc(CO)c3)nc2n1 [Example 114, [3-[7-(Methylamino)imidazo[1,2-a]pyrimidin-2-yl]phenyl]methanol acetic acid adduct]",11%
7,"FCCOc1cccc(-c2cn3ccc(N4CCC4)nc3n2)c1 [Example 115, 7-(Azetidin-1-yl)-2-(3-(2-fluoroethoxy)phenyl)imidazo[1,2-a]pyrimidine]",5%
8,"COc1ccc(-c2cn3ccc(N(CCF)C4CC4)nc3n2)cc1 [Example 116, N-Cyclopropyl-N-(2-fluoroethyl)-2-(4-methoxyphenyl)imidazo[1,2-a]pyrimidin-7-amine]",9%
9,"CNc1ccn2cc(-c3cccc(OC)c3)nc2n1 [Example 117, 2-(3-Methoxyphenyl)-N-methylimidazo[1,2-a]pyrimidin-7-amine]",40%
10,"FCOc1cccc(-c2cn3ccc(N4CCC4)nc3n2)c1 [Example 118, 7-(Azetidin-1-yl)-2-(3-(fluoromethoxy)phenyl)imidazo[1,2-a]pyrimidine]",23%
11,"Fc1ccc(-c2cn3ccc(N4CCC4)nc3n2)cc1 [Example 119, 7-(Azetidin-1-yl)-2-(4-fluorophenyl)imidazo[1,2-a]pyrimidine]",22%
12,"Fc1cccc(-c2cn3ccc(N4CCC4)nc3n2)c1 [Example 120, 7-(Azetidin-1-yl)-2-(3-fluorophenyl)imidazo[1,2-a]pyrimidine]",22%
13,"COc1cc(OC)cc(-c2cn3ccc(N4CCC4)nc3n2)c1 [Example 121, 7-(Azetidin-1-yl)-2-(3,5-dimethoxyphenyl)imidazo[1,2-a]pyrimidine]",5%
14,"CNc1ccn2cc(-c3ccc(O)cc3)nc2n1 [Example 122, 4-(7-(Methylamino)imidazo[1,2-a]pyrimidin-2-yl)phenol]",32%
15,"CNc1ccn2cc(-c3ccc(OCCF)cc3)nc2n1 [Example 123, 2-(4-(2-Fluoroethoxy)phenyl)-N-methylimidazo[1,2-a]pyrimidin-7-amine]",43%
16,"CNc1ccn2cc(-c3ccc(OCCCF)cc3)nc2n1 [Example 124, 2-(4-(3-Fluoropropoxy)phenyl)-N-methylimidazo[1,2-a]pyrimidin-7-amine]",40%
17,"CNc1ccn2cc(-c3cccc(O)c3)nc2n1 [Example 125, 3-(7-(Methylamino)imidazo[1,2-a]pyrimidin-2-yl)phenol]",16%
18,"CSc1cccc(-c2cn3ccc(N4CCC4)nc3n2)c1 [Example 126, 7-(Azetidin-1-yl)-2-(3-(methylthio)phenyl)imidazo[1,2-a]pyrimidine]",15%
19,"COc1cc(-c2cn3ccc(N4CCC4)nc3n2)ccc1C [Example 127, 7-(Azetidin-1-yl)-2-(3-methoxy-4-methylphenyl)imidazo[1,2-a]pyrimidine]",11%
20,"COc1ccc(-c2cn3ccc(N4CCC4)nc3n2)cc1OC [Example 128, 7-(Azetidin-1-yl)-2-(3,4-dimethoxyphenyl)imidazo[1,2-a]pyrimidine]",15%
21,"CNc1ccn2cc(-c3cccc(OCCF)c3)nc2n1 [Example 129, 2-(3-(2-Fluoroethoxy)phenyl)-N-methylimidazo[1,2-a]pyrimidin-7-amine]",16%
